Reference: the supplement of paper PMC10307832

Columns and labels:
Assay in all cases: relative viability (nuclei count vs DMSO), 5 days (fraction); higher = more cells survive
NCI-H1915 = tested on: NCI-H1915
How it was run: (§1)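 Medians of duplicate plates are given as relative viability. That measure is the nuclei count in treated wells divided by the count in vehicle wells. Counts were taken on 4× images of lung cancer cell lines in 1536-well plates, 5 days after pin-tool dosing the day after seeding with one drug alone or a fixed anchor-drug dose plus five library-drug doses (not always all listed) in √10 steps.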

NCI-H358 = tested on: NCI-H358
How it was run: as §1

NCI-H1975 = tested on: NCI-H1975
How it was run: as §1

PC-3 [JPC-3] = tested on: PC-3 [JPC-3]
How it was run: as §1

RERF-LC-KJ = tested on: RERF-LC-KJ
How it was run: as §1

A-427 = tested on: A-427
How it was run: as §1

SW 1573 = tested on: SW 1573
How it was run: as §1

HOP-62 = tested on: HOP-62
How it was run: as §1

NCI-H647 = tested on: NCI-H647
How it was run: as §1

LXF-289 = tested on: LXF-289
How it was run: as §1

NCI-H1792 = tested on: NCI-H1792
How it was run: as §1

HCC-78 = tested on: HCC-78
How it was run: as §1

LC-2-ad = tested on: LC-2-ad
How it was run: as §1

HCC-15 = tested on: HCC-15
How it was run: as §1

NCI-H460 = tested on: NCI-H460
How it was run: as §1

NCI-H2228 = tested on: NCI-H2228
How it was run: as §1

NCI-H2342 = tested on: NCI-H2342
How it was run: as §1

NCI-H1755 = tested on: NCI-H1755
How it was run: as §1

NCI-H1734 = tested on: NCI-H1734
How it was run: as §1

LOU-NH91 = tested on: LOU-NH91
How it was run: as §1

SK-LU-1 = tested on: SK-LU-1
How it was run: as §1

NCI-H2126 = tested on: NCI-H2126
How it was run: as §1

NCI-H2347 = tested on: NCI-H2347
How it was run: as §1

## C=C1C(=O)O[C@@H](CCCCCCCC)[C@@H]1C(=O)O [C-75] + COc1cccc2cc(-c3nc([C@H]4CC[C@H](C(=O)O)CC4)n4ncnc(N)c34)[nH]c12 [OSI-027] (partner 0.5 µM)
NCI-H1915; first compound 0.08 µM
  relative viability: 0.656
NCI-H1915; first compound 0.253 µM
  relative viability: 0.588
NCI-H1915; first compound 0.8 µM
  relative viability: 0.61
NCI-H1915; first compound 2.53 µM
  relative viability: 0.382
NCI-H1915; first compound 8 µM
  relative viability: 0.588
NCI-H358; first compound 0.08 µM
  relative viability: 0.714
NCI-H358; first compound 0.253 µM
  relative viability: 0.871
NCI-H358; first compound 0.8 µM
  relative viability: 0.691
NCI-H358; first compound 2.53 µM
  relative viability: 0.383
NCI-H358; first compound 8 µM
  relative viability: 0.624
NCI-H1975; first compound 0.08 µM
  relative viability: 0.842
NCI-H1975; first compound 0.253 µM
  relative viability: 0.672
NCI-H1975; first compound 0.8 µM
  relative viability: 0.679
NCI-H1975; first compound 2.53 µM
  relative viability: 0.436
NCI-H1975; first compound 8 µM
  relative viability: 0.717
PC-3 [JPC-3]; first compound 0.08 µM
  relative viability: 0.772
PC-3 [JPC-3]; first compound 0.253 µM
  relative viability: 0.806
PC-3 [JPC-3]; first compound 0.8 µM
  relative viability: 0.736
PC-3 [JPC-3]; first compound 2.53 µM
  relative viability: 0.668
PC-3 [JPC-3]; first compound 8 µM
  relative viability: 0.749
RERF-LC-KJ; first compound 0.08 µM
  relative viability: 0.713
RERF-LC-KJ; first compound 0.253 µM
  relative viability: 0.63
RERF-LC-KJ; first compound 0.8 µM
  relative viability: 0.514
RERF-LC-KJ; first compound 2.53 µM
  relative viability: 0.552
RERF-LC-KJ; first compound 8 µM
  relative viability: 0.561
A-427; first compound 0.08 µM
  relative viability: 0.516
A-427; first compound 0.253 µM
  relative viability: 0.51
A-427; first compound 0.8 µM
  relative viability: 0.488
A-427; first compound 2.53 µM
  relative viability: 0.439
A-427; first compound 8 µM
  relative viability: 0.39
SW 1573; first compound 0.08 µM
  relative viability: 0.705
SW 1573; first compound 0.253 µM
  relative viability: 0.709
SW 1573; first compound 0.8 µM
  relative viability: 0.555
SW 1573; first compound 2.53 µM
  relative viability: 0.634
SW 1573; first compound 8 µM
  relative viability: 0.519
HOP-62; first compound 0.08 µM
  relative viability: 0.816
HOP-62; first compound 0.253 µM
  relative viability: 0.825
HOP-62; first compound 0.8 µM
  relative viability: 0.865
HOP-62; first compound 2.53 µM
  relative viability: 0.738
HOP-62; first compound 8 µM
  relative viability: 0.705
NCI-H647; first compound 0.08 µM
  relative viability: 0.697
NCI-H647; first compound 0.253 µM
  relative viability: 0.603
NCI-H647; first compound 0.8 µM
  relative viability: 0.522
NCI-H647; first compound 2.53 µM
  relative viability: 0.474
NCI-H647; first compound 8 µM
  relative viability: 0.574
LXF-289; first compound 0.08 µM
  relative viability: 0.844
LXF-289; first compound 0.253 µM
  relative viability: 0.758
LXF-289; first compound 0.8 µM
  relative viability: 0.719
LXF-289; first compound 2.53 µM
  relative viability: 0.642
LXF-289; first compound 8 µM
  relative viability: 0.713
NCI-H1792; first compound 0.08 µM
  relative viability: 0.694
NCI-H1792; first compound 0.253 µM
  relative viability: 0.695
NCI-H1792; first compound 0.8 µM
  relative viability: 0.636
NCI-H1792; first compound 2.53 µM
  relative viability: 0.419
NCI-H1792; first compound 8 µM
  relative viability: 0.712
HCC-78; first compound 0.08 µM
  relative viability: 0.354
HCC-78; first compound 0.253 µM
  relative viability: 0.42
HCC-78; first compound 0.8 µM
  relative viability: 0.376
HCC-78; first compound 2.53 µM
  relative viability: 0.329
HCC-78; first compound 8 µM
  relative viability: 0.422
LC-2-ad; first compound 0.08 µM
  relative viability: 0.745
LC-2-ad; first compound 0.253 µM
  relative viability: 0.799
LC-2-ad; first compound 0.8 µM
  relative viability: 0.747
LC-2-ad; first compound 2.53 µM
  relative viability: 0.646
LC-2-ad; first compound 8 µM
  relative viability: 0.686
HCC-15; first compound 0.08 µM
  relative viability: 0.628
HCC-15; first compound 0.253 µM
  relative viability: 0.707
HCC-15; first compound 0.8 µM
  relative viability: 0.655
HCC-15; first compound 2.53 µM
  relative viability: 0.502
HCC-15; first compound 8 µM
  relative viability: 0.636
NCI-H460; first compound 0.08 µM
  relative viability: 0.664
NCI-H460; first compound 0.253 µM
  relative viability: 0.751
NCI-H460; first compound 0.8 µM
  relative viability: 0.59
NCI-H460; first compound 8 µM
  relative viability: 0.527
NCI-H2228; first compound 0.08 µM
  relative viability: 0.534
NCI-H2228; first compound 0.253 µM
  relative viability: 0.686
NCI-H2228; first compound 0.8 µM
  relative viability: 0.398
NCI-H2228; first compound 2.53 µM
  relative viability: 0.302
NCI-H2228; first compound 8 µM
  relative viability: 0.517
NCI-H2342; first compound 0.08 µM
  relative viability: 0.582
NCI-H2342; first compound 0.253 µM
  relative viability: 0.656
NCI-H2342; first compound 0.8 µM
  relative viability: 0.582
NCI-H2342; first compound 2.53 µM
  relative viability: 0.628
NCI-H2342; first compound 8 µM
  relative viability: 0.591
NCI-H1755; first compound 0.08 µM
  relative viability: 0.767
NCI-H1755; first compound 0.253 µM
  relative viability: 0.724
NCI-H1755; first compound 0.8 µM
  relative viability: 0.711
NCI-H1755; first compound 2.53 µM
  relative viability: 0.604
NCI-H1755; first compound 8 µM
  relative viability: 0.72
NCI-H1734; first compound 0.08 µM
  relative viability: 0.593
NCI-H1734; first compound 0.253 µM
  relative viability: 0.621
NCI-H1734; first compound 0.8 µM
  relative viability: 0.481
NCI-H1734; first compound 2.53 µM
  relative viability: 0.323
NCI-H1734; first compound 8 µM
  relative viability: 0.455
LOU-NH91; first compound 0.08 µM
  relative viability: 0.725
LOU-NH91; first compound 0.253 µM
  relative viability: 0.622
LOU-NH91; first compound 0.8 µM
  relative viability: 0.68
LOU-NH91; first compound 2.53 µM
  relative viability: 0.656
LOU-NH91; first compound 8 µM
  relative viability: 0.781
SK-LU-1; first compound 0.08 µM
  relative viability: 0.348
SK-LU-1; first compound 0.253 µM
  relative viability: 0.379
SK-LU-1; first compound 0.8 µM
  relative viability: 0.416
SK-LU-1; first compound 2.53 µM
  relative viability: 0.319
SK-LU-1; first compound 8 µM
  relative viability: 0.308
NCI-H2126; first compound 0.08 µM
  relative viability: 0.762
NCI-H2126; first compound 0.253 µM
  relative viability: 0.757
NCI-H2126; first compound 0.8 µM
  relative viability: 0.707
NCI-H2126; first compound 2.53 µM
  relative viability: 0.744
NCI-H2126; first compound 8 µM
  relative viability: 0.66
NCI-H2347; first compound 0.08 µM
  relative viability: 0.408
NCI-H2347; first compound 0.253 µM
  relative viability: 0.523
NCI-H2347; first compound 0.8 µM
  relative viability: 0.44
NCI-H2347; first compound 8 µM
  relative viability: 0.478
